Measurements as given in US20230391730A1, “INHIBITORS OF THE BROMODOMAIN PHD FINGER TRANSCRIPTION FACTOR (BPTF) AS ANTI-CANCER AGENTS” (Regents of the University of Minnesota, priority 2020, published 2023).
“Also recorded” adds a separate entry of the source. One block for each molecule: values may come before it.

What was measured:
4T1 cells [1] = assay: Inhibitor toxicity in 4T1 cells (MTS assay); format: cell-based, mouse; settings: inhibitor alone
Procedure: (§1) Cell culture methods. 4T1 cells were grown to a confluency of 50-60% using media containing DMEM with 10% fetal bovine serum (FES), 2 mM glutamine and penicillin-streptomycin. 4T1 cells with snRNA-mediated BPTF knockdown (KD) were prepared as described previously. For NURF inhibitor toxicity study, 4000 cells/well were seeded in a 96-well plate and allowed to adhere overnight. The next day, 10 different dilutions of inhibitors were prepared starting with a highest concentration of 1.0 mM and further serially diluted 10 times to get the lowest concentration of 1.95 μM. Cells were treated with the inhibitors in complete media for 4 days. Thereafter, the MTS reagent was prepared using the CellTitre 96 aqueous MTS reagent (Promega, Cat #G1111) and phenazine methosulphate (Sigma, Cat #P9625). The MTS assay was performed as per manufacturer's protocol and the absorbance was recorded at a wavelength of 490 nm. Fraction cell survival was calculated using untreated control cells to indicate complete survival (1.0) and blank solutions as 0.0 survival. The data was derived from three independent experiments (N=3) and fraction survival was plotted as mean fraction survival±SEM using GraphPad Prism software. […] Fraction survival was measured and calculated by MIS assay as mentioned above.

Sfn = assay: RT-qPCR of BPTF regulated genes in Eph4 cells, Sfn; format: cell-based, murine; settings: 5 μM, 24 h, relative to DMSO
Procedure: qPCR methods. Eph4 cells were treated for 24 h and harvested in trizol. RNA extraction was carried out via chloroform extractions. cDNA creation was completed via SuperScript III cDNA creation kit (Invitrogen, #12574026). All qpcrs are normalized to EPH4 DMSO and the house keeping gene beta actin. Bars represent 2 biological replicates and 3 technical replicates. All statistical analysis are student's t-test carried out on GraphPad. Reactions were carried out on the Quantstudio 6 platform using Sybr Green PCR Master Mix (Applied Biosystems, #4309155) Statistically significant differences for cell line treatment groups were considered with a one-way Anova p-value lower than 0.05 (p<0.05).
It's been previously shown that BPTF inhibition was associated with alteration to lineage commitment and stem cell maintenance. Loss of BPTF expression in a mixed population of Krt5-expressing mammary stem cells induced differentiation, a process that was accompanied by changes to chromatin accessibility and altered gene expression activation. The effects of the BPTF inhibitors described herein were investigated in mammary luminal cells.

4T1 cells [2] = assay: Combination with doxorubicin in 4T1 cells (MTS assay); format: cell-based, mouse; settings: for sensitization of 4T1 cells to doxorubicin: 50 nM doxorubicin
Procedure: Cell culture methods. 4T1 cells were grown to a confluency of 50-60% using media containing DMEM with 10% fetal bovine serum (FES), 2 mM glutamine and penicillin-streptomycin. 4T1 cells with snRNA-mediated BPTF knockdown (KD) were prepared as described previously. For NURF inhibitor toxicity study, 4000 cells/well were seeded in a 96-well plate and allowed to adhere overnight. The next day, 10 different dilutions of inhibitors were prepared starting with a highest concentration of 1.0 mM and further serially diluted 10 times to get the lowest concentration of 1.95 μM. Cells were treated with the inhibitors in complete media for 4 days. Thereafter, the MTS reagent was prepared using the CellTitre 96 aqueous MTS reagent (Promega, Cat #G1111) and phenazine methosulphate (Sigma, Cat #P9625). The MTS assay was performed as per manufacturer's protocol and the absorbance was recorded at a wavelength of 490 nm. Fraction cell survival was calculated using untreated control cells to indicate complete survival (1.0) and blank solutions as 0.0 survival. The data was derived from three independent experiments (N=3) and fraction survival was plotted as mean fraction survival±SEM using GraphPad Prism software. For checking the toxicity on wildtype and BPTF knockdown cells, three doses were selected for each inhibitor based on theft toxicity curves and treated for 4 days alone or in combination with 50 nM doxorubicin. Fraction survival was measured and calculated by MIS assay as mentioned above.

[3] = test system: 4T1 cells with shRNA-mediated BPTF knockdown; assay: Inhibitors with doxorubicin in BPTF knockdown 4T1 cells; format: cell-based, mouse
Procedure: as §1

BPTF bromodomain = target: T1, BPTF bromodomain (Homo sapiens, UniProt Q12830); assay: BPTF AlphaScreen competitive inhibition assay; format: binding
T1 construct: 30 nM for His9-tagged BPTF bromodomain and 50 nM for the biotinylated peptide were used; made in house
Procedure: (§3) General Procedure for AlphaScreen Assay.^36 Unlabeled His9-tagged BPTF and BRD4 D1 were expressed and purified as described previously.^36 The AlphaScreen assay procedures for BPTF and BRD4 bromodomains were adapted from the manufacturers protocol (PerkinElmer, USA). […] The biotinylated Histone H4 KAc5,8,12,16 peptide was purchased from EpiCypher, with the sequence:
(§4) All reagents were diluted in the assay buffer (50 mM HEPES-Na^+ (ChemImpex), 100 mM NaCl (SigmaAldrich), 0.05% CHAPS (RPI), 0.1% BSA (SigmaAldrich), pH 7.4). The final assay concentrations (after the addition of all assay components) of 30 nM for His9-tagged BPTF bromodomain and 50 nM for the biotinylated peptide were used. […] The plate was sealed and kept at room temperature for 30 min, followed by the addition of 5 μL of the biotinylated peptide. 5 μL of nickel chelate acceptor beads was added to each well under low light conditions (<100 lux), to a final concentration of 20 μg/mL, and the plate was incubated at room temperature in the dark for 30 minutes. This was followed by the addition of 5 μL (20 μg/mL final concentration) of streptavidin donor beads in low light conditions. After incubation for 30 min in the dark, the plate was read in AlphaScreen mode using a PerkinElmer EnSpire plate reader. […] IC50 values were calculated in GraphPad Prism 5 using sigmoidal 4-parameter logistic (4PL) curve

BRD9 = target: T2, BRD9 (Homo sapiens, UniProt Q9H8M2); settings: previously reported; cited from earlier work
T2 sequence (Q9H8M2 1-597): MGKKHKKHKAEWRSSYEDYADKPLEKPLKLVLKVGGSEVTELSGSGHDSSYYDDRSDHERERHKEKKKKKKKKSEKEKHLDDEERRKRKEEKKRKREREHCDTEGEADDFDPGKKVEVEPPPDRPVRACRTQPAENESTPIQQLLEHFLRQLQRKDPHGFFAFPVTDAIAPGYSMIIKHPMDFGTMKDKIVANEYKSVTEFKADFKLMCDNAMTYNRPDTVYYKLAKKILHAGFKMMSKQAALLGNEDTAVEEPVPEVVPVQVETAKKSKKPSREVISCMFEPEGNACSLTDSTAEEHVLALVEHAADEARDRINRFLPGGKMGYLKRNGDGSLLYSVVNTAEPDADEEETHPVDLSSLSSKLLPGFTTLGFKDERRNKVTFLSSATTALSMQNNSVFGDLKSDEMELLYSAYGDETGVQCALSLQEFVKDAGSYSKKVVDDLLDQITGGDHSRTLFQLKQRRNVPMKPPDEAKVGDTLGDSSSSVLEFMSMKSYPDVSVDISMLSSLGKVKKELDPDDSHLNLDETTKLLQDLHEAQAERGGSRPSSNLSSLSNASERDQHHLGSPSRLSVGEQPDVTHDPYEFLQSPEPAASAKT

PCAF [4] = target: PCAF (Homo sapiens, UniProt Q92831); settings: previously reported; cited from earlier work
Target sequence in this assay (Q92831 whole entry): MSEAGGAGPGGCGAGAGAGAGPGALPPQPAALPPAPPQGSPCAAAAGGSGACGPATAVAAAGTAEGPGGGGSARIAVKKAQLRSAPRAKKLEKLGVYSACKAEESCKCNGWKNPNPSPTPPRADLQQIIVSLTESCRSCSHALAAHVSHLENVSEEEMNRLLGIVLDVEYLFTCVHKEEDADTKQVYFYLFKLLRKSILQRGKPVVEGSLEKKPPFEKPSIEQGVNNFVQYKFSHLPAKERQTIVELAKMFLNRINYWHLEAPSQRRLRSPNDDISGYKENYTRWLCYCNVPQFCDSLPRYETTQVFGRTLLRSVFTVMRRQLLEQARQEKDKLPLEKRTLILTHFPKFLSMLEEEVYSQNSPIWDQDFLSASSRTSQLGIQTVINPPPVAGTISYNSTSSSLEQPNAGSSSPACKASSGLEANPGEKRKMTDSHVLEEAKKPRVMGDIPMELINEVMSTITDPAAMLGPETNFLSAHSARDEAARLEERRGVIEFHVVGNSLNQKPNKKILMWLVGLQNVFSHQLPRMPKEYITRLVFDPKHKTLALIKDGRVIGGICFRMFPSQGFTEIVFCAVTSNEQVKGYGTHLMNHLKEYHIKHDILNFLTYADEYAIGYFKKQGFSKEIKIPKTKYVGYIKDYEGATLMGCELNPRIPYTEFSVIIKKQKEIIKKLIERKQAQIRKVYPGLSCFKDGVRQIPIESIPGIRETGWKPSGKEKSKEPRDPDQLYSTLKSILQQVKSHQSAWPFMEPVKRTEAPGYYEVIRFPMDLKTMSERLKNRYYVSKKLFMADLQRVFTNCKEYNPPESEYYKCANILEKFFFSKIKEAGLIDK

CECR2 [5] = target: T3, CECR2 (Homo sapiens, UniProt Q9BXF3); assay: PrOF NMR titration, 5FW-CECR2; format: binding; parameters: three class I bromodomains, BPTF, PCAF, CECR2 and one class II bromodomain, BRD4(1) were fluorine-labelled; made in house; settings: 5FW-labeled protein
Target sequence in this assay (Q9BXF3 434-538): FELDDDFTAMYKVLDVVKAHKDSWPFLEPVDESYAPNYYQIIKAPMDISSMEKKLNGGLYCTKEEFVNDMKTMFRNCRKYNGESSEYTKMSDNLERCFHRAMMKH
Procedure: (§5) Protein-Observed Fluorine (PrOF) NMR. […] 40-50 μM of protein in 50 mM TRIS, 100 mM NaCl, and pH 7.4 was diluted by adding 25 μL of D2O and 2 μL of 0.1% TFA for NMR locking and referencing purposes, respectively. […] Ligands were titrated and the change in chemical shift relative to the control sample was plotted as a function of ligand concentration to generate binding isotherms. The data was processed in Mestrenova and isotherms were fit using GraphPad Prism with the equation below. Δδobs is the change in chemical shift, [L] is the total ligand concentration, and [P] is the total protein concentration:
(§6) The tryptophan residue in the WPF shelf of three class I bromodomains, BPTF, PCAF, CECR2 and one class II bromodomain, BRD4(1) were fluorine-labelled (FIG. 4A) and the chemical shift perturbation on titrating in BZ1 was observed.

GCN5L2 = target: T4, GCN5L2 (Homo sapiens, UniProt Q92830); assay: BROMOscan, GCN5L2; format: binding; settings: BROMOscan one-point measurement at 140 nM
T4 construct: off-target class I (PCAF, GCN5L2, CECR2,) and class IV (BRD7, BRD9) bromodomains and BRD4(1); purchased
T4 sequence (Q92830 728-832 limits assumed): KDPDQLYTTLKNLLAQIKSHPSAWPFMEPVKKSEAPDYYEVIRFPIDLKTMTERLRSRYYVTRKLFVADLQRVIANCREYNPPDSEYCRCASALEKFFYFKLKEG
Source text: (§2) Based on the preliminary assessment of BPTF selectivity and affinity of BZ1 by PrOF NMR and AlphaScreen competition assays, the ligand was characterized using a commercial BROMOscan assay. […]. Given the low concentration of ligand and protein used, AlphaScreen can be used to estimate K values as was previously the case for characterizing BRD4-ligand interactions, however the assay for BPTF may slightly underestimate the affinity. […] […]. Recently reported pyridazinone-based inhibitors also bind to these proteins and BRD9 was reported as the closest off-target for TP-238. These studies supported good on target-BPTF inhibition, and identified several off-targets bromodomains for a more quantitative selectivity analysis.

BRD4(1) [6] = target: T5, BRD4(1) (Homo sapiens, UniProt O60885); assay: PrOF NMR titration, 5FW-BRD4(1); format: binding; parameters: three class I bromodomains, BPTF, PCAF, CECR2 and one class II bromodomain, BRD4(1) were fluorine-labelled; made in house; settings: 5FW-labeled protein
Procedure: as §5, §6

PCAF [7] = target: T6, PCAF (Homo sapiens, UniProt Q92831); assay: PrOF NMR titration, 5FW-PCAF; format: binding; settings: 5FW-labeled protein
T6 construct: three class I bromodomains, BPTF, PCAF, CECR2 and one class II bromodomain, BRD4(1) were fluorine-labelled; made in house
T6 sequence (Q92831 723-827): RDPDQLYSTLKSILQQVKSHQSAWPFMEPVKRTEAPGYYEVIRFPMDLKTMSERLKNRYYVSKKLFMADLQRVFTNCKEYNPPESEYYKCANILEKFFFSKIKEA
Procedure: as §5, §6

[8] = format: physicochemical
Procedure: UV-Vis Methods. Compounds were diluted in DMSO at a top concentration of 100 mM. 2-fold serial dilutions in DMSO where performed followed by 1000-fold dilution into phosphate saline buffer (PBS) to get a final top concentration of 100 μM in 0.1% DMSO for each compound. UV-Vis measurements at 254 nm were taken on a Biomate 3S Spectrophotometer.

CECR2 [9] = target: T3, CECR2; assay: BROMOscan, CECR2; format: binding; parameters: off-target class I (PCAF, GCN5L2, CECR2,) and class IV (BRD7, BRD9) bromodomains and BRD4(1); purchased; settings: BROMOscan one-point measurement at 140 nM
Source text: as §2
Target sequence in this assay (Q9BXF3 434-538 limits assumed): as the sequence (Q9BXF3 434-538) above

Eph4 cells = settings: 5 μM
Procedure: Cytotoxicity experiments with Eph4 cells. […] Media containing each condition were changed every 12 hours. […] Cells were also stained with Live/Dead Violet (Thermo Scientific, #L34964) in accordance to manufacturers specifications. All flow was performed on a Macsquant 10 (Miltenyl Biotec) and analyzed on FlowJo (TreeStar/BD).

PCAF [10] = target: T7, PCAF (Homo sapiens, UniProt Q92831); assay: BROMOscan, PCAF; format: binding
T7 construct: off-target class I (PCAF, GCN5L2, CECR2,) and class IV (BRD7, BRD9) bromodomains and BRD4(1); purchased
T7 sequence (Q92831 723-827 limits assumed): T6 sequence (Q92831 723-827)
Procedure: Given that these measurements were only estimates of affinity, a full titration was carried out for five additional bromodomains (FIG. 5B).

BPTF = target: T8, BPTF (Homo sapiens, UniProt Q12830); assay: BROMOscan, BPTF; format: binding
T8 construct: Kd values for BZ1 with BPTF and off-target class I (PCAF, GCN5L2, CECR2,) and class IV (BRD7, BRD9) bromodomains; purchased

BRD4(1) [11] = target: T5, BRD4(1); assay: BRD4(1) AlphaScreen competitive inhibition assay; format: binding; parameters: Unlabeled His9-tagged BPTF and BRD4 D1 were expressed and purified as described previously; made in house
Procedure: as §3, §4

[12] = disclosed by the structural genomics consortium; cited from earlier work
CECR2 [13] = target: T3, CECR2; settings: disclosed by the structural genomics consortium; cited from earlier work
Target sequence in this assay (Q9BXF3 whole entry): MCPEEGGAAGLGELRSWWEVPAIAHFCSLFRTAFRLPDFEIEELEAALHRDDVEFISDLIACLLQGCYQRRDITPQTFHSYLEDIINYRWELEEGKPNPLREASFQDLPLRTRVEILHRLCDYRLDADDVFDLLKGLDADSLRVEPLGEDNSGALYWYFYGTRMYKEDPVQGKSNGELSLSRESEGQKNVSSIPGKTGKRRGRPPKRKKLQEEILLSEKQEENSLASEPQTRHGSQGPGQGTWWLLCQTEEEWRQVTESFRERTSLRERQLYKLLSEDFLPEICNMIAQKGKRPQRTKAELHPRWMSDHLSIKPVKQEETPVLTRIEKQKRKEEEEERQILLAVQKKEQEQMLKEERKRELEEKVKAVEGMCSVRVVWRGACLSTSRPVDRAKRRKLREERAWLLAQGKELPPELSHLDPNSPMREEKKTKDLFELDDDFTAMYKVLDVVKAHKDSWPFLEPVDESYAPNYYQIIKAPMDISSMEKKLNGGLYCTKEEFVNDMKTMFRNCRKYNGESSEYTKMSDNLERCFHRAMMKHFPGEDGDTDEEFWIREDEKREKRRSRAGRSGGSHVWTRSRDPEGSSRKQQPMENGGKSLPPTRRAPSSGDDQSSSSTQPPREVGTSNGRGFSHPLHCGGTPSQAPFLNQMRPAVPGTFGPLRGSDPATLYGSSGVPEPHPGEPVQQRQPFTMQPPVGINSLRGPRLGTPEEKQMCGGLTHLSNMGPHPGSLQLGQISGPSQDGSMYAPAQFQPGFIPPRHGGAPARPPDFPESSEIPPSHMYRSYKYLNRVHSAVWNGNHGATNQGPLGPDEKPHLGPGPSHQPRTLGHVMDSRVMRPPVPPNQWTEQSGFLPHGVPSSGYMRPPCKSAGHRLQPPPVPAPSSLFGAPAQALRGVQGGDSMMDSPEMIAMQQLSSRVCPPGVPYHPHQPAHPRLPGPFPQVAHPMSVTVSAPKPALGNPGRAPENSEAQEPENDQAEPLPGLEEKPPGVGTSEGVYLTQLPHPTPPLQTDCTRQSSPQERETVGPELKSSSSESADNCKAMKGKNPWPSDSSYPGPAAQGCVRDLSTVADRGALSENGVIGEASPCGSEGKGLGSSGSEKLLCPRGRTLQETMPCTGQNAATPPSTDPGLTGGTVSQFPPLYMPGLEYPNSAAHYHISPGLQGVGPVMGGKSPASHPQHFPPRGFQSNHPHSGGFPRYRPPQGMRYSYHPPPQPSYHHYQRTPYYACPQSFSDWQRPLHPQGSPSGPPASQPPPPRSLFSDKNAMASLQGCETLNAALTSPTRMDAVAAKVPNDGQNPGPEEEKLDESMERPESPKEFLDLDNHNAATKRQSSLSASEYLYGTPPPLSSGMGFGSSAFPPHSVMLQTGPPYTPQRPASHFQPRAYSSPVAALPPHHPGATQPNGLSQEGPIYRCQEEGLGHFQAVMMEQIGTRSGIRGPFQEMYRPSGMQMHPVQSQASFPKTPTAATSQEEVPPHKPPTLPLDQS

SMILES: COC(=O)c1cccc(NC(=O)N[C@H]2CCN(c3ccnc(Nc4ccc(F)cc4)n3)C2)c1 [AU1, reference compound]
concentration at which toxicity starts (4T1 cells [1]): above 16 μM | Sfn mRNA level (Sfn): upregulated Sfn but did not reach a high enough level of statistical significance | sensitization of 4T1 cells to doxorubicin (4T1 cells [2]): synergize with chemotherapy drug doxorubicin | further toxicity in BPTF knockdown cells [3]: Additional toxicity was observed

SMILES: Cn1ncc(Nc2ccccc2)c(Cl)c1=O [Compound 6, 4-chloro-2-methyl-5-(phenylamino)pyridazin-3(2H)-one]
improvement in affinity compared to previous aliphatic amine analogues (BPTF bromodomain): 10 fold | affinity for BRD9 (BRD9): 2.5 µM | affinity for PCAF (PCAF [4]): 10 µM

SMILES: Cn1ncc(Nc2ccc(CCN)cc2)c(Cl)c1=O [Compound 18, 5-((4-(2-aminoethyl)phenyl)amino)-4-chloro-2-methylpyridazin-3(2H)-one]
chemical exchange regime with CECR2 (CECR2 [5]): intermediate chemical exchange | inhibition of GCN5L2 (GCN5L2): lower levels of inhibition | chemical exchange regime with BRD4(1) (BRD4(1) [6]): fast-intermediate exchange | chemical exchange regime with PCAF (PCAF [7]): slow exchange regime stoichiometric titration | solubility [8]: ≥ 100 µM | sensitization of 4T1 cells to doxorubicin (4T1 cells [2]; listed as BZ1): synergize with chemotherapy drug doxorubicin; also recorded: sensitized 4T1 cells to doxorubicin | inhibition of CECR2 (CECR2 [9]): lower levels of inhibition

SMILES: CN(C)CCc1ccc(Nc2cnn(C)c(=O)c2Cl)cc1 [Compound 19, 4-chloro-5-((4-(2-(dimethylamino)ethyl)phenyl)amino)-2-methylpyridazin-3(2H)-one]
solubility [8]: ≥ 100 µM | Sfn mRNA level (Sfn): statistically significant increase | sensitization of 4T1 cells to doxorubicin (4T1 cells [2]): synergize with chemotherapy drug doxorubicin; also recorded: sensitized 4T1 cells to doxorubicin | less effective than BZ1 (4T1 cells [2]; dose dependence experiment with doxorubicin): 2-4 fold | caspase activation (Eph4 cells): lack of caspase activation

SMILES: CN(C)CCc1ccc(Nc2c(Cl)cnn(C)c2=O)cc1 [Compound 20, 5-chloro-4-((4-(2-(dimethylamino)ethyl)phenyl)amino)-2-methylpyridazin-3(2H)-one]
IC50 (BPTF bromodomain): 10000 nM | weaker affinity than 18 (BPTF bromodomain): 140 fold | L.E. (ligand efficiency) (BPTF bromodomain; from BPTF AlphaScreen): 0.32 | solubility [8]: ≥ 100 µM | Sfn mRNA level (Sfn): not significantly affected | sensitization of 4T1 cells to doxorubicin (4T1 cells [2]): did not

Kd (PCAF [10]): 230 nM | IC50 (BPTF bromodomain): 380 nM | Kd (BPTF): 200 nM | IC50 (BRD4(1) [11]): 71000 nM
SMILES: C#CCn1ncc(Nc2ccc(CN)cc2)c(Cl)c1=O [Compound 24, 5-((4-(aminomethyl)phenyl)amino)-4-chloro-2-(prop-2-yn-1-yl)pyridazin-3(2H)-one]

SMILES: Cc1c(Nc2ccc(S(=O)(=O)N3CCN(C)CC3)cc2F)nc2ccc(-c3cnn(C4CC4)c3)cn2c1=O [NVS-BPTF-1]
solubility and ADME properties [12]: poor solubility and ADME properties

SMILES: CN(C)CCCOc1ccc(-c2cc(NCCCn3cccn3)nc(S(C)(=O)=O)n2)cc1 [TP-238]
higher affinity for CECR2 over BPTF (CECR2 [13]): 12 fold
